Reference: patent US20140005163A1 (NOVARTIS AG, priority 2010, published 2014)
In brackets after ≈: the same amount, converted by molar mass.

Assays:
PI3K alpha = molecular target: T1, PI3K alpha (Homo sapiens, UniProt P42336); experiment: PI3K alpha kinase assay (Kinase-Glo luminescence); type: biochemical
T1 construct: p85(iSH2) fusion partner (see partner chain) (N); His tag (C); made in house; host or cells: baculovirus; Tn5 (Trichoplusia ni) or TiniPro insect cells
How it was run: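 PI3Kα construct EMV B1075 (10 nM final) was preincubated with 10 μg/mL phosphatidylinositol in 10 mM Tris-HCl pH 7.5, 3 mM MgCl2, 50 mM NaCl, 0.05% CHAPS, 1 mM DTT. Reaction started with 1 μM ATP, 60 min at room temperature; remaining ATP measured by Kinase-Glo luminescence. IC50 from 4-parameter logistic fit of 8-point titrations.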

Solubility at pH 6.8 = type: physicochemical; conditions: pH 6.8, aqueous buffer, thermodynamic from solid; read-out: solubility
How it was run: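 Following the procedure of Zhou et al. (2007), compound solubility was determined at pH 6.8.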

PI3K delta = molecular target: T2, PI3K delta (Homo sapiens, UniProt O00329); experiment: PI3K delta kinase assay (Kinase-Glo luminescence); type: biochemical
T2 construct: for the full-length p110-d subunit are generated and fused by overlapping PCR; p85(iSH2) fusion partner (see partner chain) (N); His tag (C); made in house; host or cells: baculovirus; Tn5 (Trichoplusia ni) or TiniPro insect cells
How it was run: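 Recombinant p85(iSH2)-Gly linker-p110δ full-length construct (BV1060, C-terminal His tag) was used at 10 nM with 10 μg/mL phosphatidylinositol and 1 μM ATP in 10 mM Tris-HCl pH 7.5, 3 mM MgCl2, 50 mM NaCl, 0.05% CHAPS, 1 mM DTT. After 60 min at room temperature, remaining ATP was measured by Kinase-Glo luminescence.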

[1] = test system: S6 Ribosomal Protein phosphorylation Ser235/236 in TSC1 null mouse embryo fibroblast (MEF) cells; experiment: Reverse protein array assay, S6 Ribosomal Protein phosphorylation Ser235/236 in TSC1 null MEF cells; type: cell-based; conditions: 1 h, pS6 ribosomal protein Ser235/236, 60 minutes incubation, read-out: p-S6 IC50
How it was run: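 TSC1−/− MEFs, seeded and held ≥20 h at 37 °C/5% CO2, were exposed to 8-step serial compound dilutions (0.02% DMSO final; DMSO vehicle control) for 60 min at 37 °C. Cells were then lysed on ice for 10 min and lysates spotted onto reverse protein array chips.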

PI3K beta = molecular target: T3, PI3K beta (Homo sapiens, UniProt P42338); experiment: PI3K beta kinase assay (Kinase-Glo luminescence); type: biochemical
T3 construct: for the full-length p110-b subunit are generated and fused by overlapping PCR; p85(iSH2) fusion partner (see partner chain) (N); His tag (C); made in house; host or cells: baculovirus; Tn5 (Trichoplusia ni) or TiniPro insect cells
How it was run: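 IC50 is derived by four-parameter logistic curve fitting of Kinase-Glo luminescence, which measures ATP left after a 60 min room-temperature reaction. Conditions are 25 nM His-tagged p85(iSH2)-p110β, 1 μM ATP and 10 μg/mL bovine liver phosphatidylinositol.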

T2 sequence (O00329 with tags, fused parts or gaps limits assumed): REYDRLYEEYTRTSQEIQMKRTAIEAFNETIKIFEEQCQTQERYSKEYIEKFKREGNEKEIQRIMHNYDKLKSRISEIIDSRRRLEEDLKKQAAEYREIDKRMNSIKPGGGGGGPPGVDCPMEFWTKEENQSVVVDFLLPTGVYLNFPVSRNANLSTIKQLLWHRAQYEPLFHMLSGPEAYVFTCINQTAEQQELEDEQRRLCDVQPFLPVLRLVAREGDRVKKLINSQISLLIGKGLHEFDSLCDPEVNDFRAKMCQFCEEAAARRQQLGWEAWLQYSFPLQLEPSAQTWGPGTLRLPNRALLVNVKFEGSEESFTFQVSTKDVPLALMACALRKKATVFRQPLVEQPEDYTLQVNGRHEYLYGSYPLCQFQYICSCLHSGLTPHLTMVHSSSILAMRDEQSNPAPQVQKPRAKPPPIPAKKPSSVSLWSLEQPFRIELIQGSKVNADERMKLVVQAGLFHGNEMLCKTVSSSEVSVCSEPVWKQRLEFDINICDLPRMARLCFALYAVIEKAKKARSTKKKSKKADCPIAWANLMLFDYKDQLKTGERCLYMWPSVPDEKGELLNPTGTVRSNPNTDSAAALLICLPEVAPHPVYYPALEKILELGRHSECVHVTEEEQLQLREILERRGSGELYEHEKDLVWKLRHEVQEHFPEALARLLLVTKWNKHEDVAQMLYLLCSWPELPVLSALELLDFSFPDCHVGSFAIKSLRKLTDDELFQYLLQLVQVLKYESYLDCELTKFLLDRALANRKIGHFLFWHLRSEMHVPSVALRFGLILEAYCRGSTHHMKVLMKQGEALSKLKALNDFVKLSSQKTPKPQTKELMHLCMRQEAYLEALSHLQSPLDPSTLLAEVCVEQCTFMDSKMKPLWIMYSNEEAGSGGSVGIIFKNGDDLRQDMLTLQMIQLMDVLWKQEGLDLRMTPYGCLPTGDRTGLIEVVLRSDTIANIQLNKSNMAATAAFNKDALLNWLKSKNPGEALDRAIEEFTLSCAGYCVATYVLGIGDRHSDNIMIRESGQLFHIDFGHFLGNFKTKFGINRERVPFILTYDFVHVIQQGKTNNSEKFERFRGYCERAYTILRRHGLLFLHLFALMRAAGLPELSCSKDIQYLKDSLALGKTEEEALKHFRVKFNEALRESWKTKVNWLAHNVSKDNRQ
T3 sequence (P42338 with tags, fused parts or gaps limits assumed): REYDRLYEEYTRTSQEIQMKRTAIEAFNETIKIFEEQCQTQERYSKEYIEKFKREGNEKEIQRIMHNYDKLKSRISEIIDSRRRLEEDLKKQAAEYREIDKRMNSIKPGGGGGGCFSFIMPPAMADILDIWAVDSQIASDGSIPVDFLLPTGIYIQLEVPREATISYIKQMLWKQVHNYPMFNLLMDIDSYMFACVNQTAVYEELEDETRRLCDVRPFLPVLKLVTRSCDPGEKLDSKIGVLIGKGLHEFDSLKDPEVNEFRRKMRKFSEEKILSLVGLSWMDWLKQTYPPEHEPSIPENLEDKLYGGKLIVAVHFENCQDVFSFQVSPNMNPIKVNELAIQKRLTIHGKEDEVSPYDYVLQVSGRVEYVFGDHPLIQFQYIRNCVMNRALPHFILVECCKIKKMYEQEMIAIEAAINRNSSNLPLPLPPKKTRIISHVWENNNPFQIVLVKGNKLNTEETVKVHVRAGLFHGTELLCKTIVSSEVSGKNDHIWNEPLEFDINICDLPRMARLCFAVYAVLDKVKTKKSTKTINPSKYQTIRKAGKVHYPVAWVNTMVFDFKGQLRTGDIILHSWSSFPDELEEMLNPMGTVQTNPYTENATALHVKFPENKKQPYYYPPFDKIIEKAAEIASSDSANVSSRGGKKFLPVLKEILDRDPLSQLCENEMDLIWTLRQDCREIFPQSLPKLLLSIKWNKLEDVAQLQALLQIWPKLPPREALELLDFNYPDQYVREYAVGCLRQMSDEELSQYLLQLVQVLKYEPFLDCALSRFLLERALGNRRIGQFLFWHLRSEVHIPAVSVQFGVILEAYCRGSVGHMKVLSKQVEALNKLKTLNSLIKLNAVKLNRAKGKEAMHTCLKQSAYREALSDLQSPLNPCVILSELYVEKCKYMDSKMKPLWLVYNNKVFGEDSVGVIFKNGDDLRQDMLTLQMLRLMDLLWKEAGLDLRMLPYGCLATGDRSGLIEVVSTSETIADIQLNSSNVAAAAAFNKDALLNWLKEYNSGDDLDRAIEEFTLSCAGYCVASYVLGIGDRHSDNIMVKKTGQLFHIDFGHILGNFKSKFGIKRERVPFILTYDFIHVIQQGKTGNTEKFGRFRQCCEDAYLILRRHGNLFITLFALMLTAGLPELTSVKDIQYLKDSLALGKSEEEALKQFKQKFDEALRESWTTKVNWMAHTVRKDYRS
T1 sequence (P42336 with tags, fused parts or gaps limits assumed): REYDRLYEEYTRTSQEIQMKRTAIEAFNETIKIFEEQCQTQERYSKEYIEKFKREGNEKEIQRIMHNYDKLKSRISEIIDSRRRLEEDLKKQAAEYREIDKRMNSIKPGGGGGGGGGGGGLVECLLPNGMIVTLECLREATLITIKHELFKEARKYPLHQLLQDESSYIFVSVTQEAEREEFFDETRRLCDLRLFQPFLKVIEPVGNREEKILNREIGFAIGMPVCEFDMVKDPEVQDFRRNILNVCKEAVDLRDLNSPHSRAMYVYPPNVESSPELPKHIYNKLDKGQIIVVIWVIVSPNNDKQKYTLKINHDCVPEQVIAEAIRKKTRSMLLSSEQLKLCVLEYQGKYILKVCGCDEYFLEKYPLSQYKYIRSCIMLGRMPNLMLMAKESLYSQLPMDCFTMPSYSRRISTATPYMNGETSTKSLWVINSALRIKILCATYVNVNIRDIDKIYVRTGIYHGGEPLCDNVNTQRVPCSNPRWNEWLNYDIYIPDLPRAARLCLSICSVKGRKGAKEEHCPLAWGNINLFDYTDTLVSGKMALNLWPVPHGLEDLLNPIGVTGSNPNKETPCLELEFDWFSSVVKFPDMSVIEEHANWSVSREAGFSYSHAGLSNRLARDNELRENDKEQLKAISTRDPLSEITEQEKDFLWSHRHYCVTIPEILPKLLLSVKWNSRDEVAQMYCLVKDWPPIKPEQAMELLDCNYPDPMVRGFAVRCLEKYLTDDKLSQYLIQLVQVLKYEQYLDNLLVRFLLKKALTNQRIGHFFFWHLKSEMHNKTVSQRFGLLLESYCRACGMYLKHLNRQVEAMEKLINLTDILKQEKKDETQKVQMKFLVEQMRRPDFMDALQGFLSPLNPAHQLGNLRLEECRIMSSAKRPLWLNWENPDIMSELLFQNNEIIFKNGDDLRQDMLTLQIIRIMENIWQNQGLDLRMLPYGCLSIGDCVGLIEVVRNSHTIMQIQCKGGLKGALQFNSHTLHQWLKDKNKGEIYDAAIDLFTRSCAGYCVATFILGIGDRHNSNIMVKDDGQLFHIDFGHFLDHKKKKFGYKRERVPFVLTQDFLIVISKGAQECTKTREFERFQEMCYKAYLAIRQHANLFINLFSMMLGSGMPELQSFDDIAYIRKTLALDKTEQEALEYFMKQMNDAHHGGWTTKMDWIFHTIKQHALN

Compound | IC50 (PI3K alpha) | solubility (Solubility at pH 6.8) | IC50 (PI3K delta) | IC50 [1] | IC50 (PI3K beta)
CNC(=O)c1ccc(-c2ccc3ncc4c(c3c2)n(-c2cn(C)nc2C)c(=O)n4C)cn1 [Example 15.1, 5-[1-(1,3-Dimethyl-1H-pyrazol-4-yl)-3-methyl-2-oxo-2,3-dihydro-1H-imidazo[4,5-c]quinolin-8-yl]-pyridine-2-carboxylic acid methylamide] | 16 nM | 10 µg/mL (≈ 23.4 µM) | 257 nM | 11 nM | 255 nM
Cc1nn(C(C)C)cc1-n1c(=O)n(C)c2cnc3ccc(-c4ccc(CO)nc4)cc3c21 [Example 16.3, 8-(6-hydroxymethyl-pyridin-3-yl)-1-(1-isopropyl-3-methyl-1H-pyrazol-4-yl)-3-methyl-1,3-dihydro-imidazo[4,5-c]quinolin-2-one] | 59 nM | > 428 µg/mL | 27 nM | 61 nM | 404 nM
CCn1cc(-n2c(=O)n(C)c3cnc4ccc(-c5cnc(OC)nc5)cc4c32)c(C)n1 [Example 17.1, 1-(1-Ethyl-3-methyl-1H-pyrazol-4-yl)-8-(2-methoxy-pyrimidin-5-yl)-3-methyl-1,3-dihydro-imidazo[4,5-c]quinolin-2-one] | 30 nM | 81 µg/mL (≈ 195 µM) | 20 nM | 87 nM | 120 nM
COc1ncc(-c2ccc3ncc4c(c3c2)n(-c2cn(C)nc2C)c(=O)n4C)cn1 [Example 17.2, 1-(1,3-Dimethyl-1H-pyrazol-4-yl)-8-(2-methoxy-pyrimidin-5-yl)-3-methyl-1,3-dihydro-imidazo[4,5-c]quinolin-2-one] | 56 nM | 32 µg/mL (≈ 79.7 µM) | 38 nM | 33 nM | 206 nM
COc1ncc(-c2ccc3ncc4c(c3c2)n(-c2cn(C)nc2Cl)c(=O)n4C)cn1 [Example 17.3, 1-(3-Chloro-1-methyl-1H-pyrazol-4-yl)-8-(2-methoxy-pyrimidin-5-yl)-3-methyl-1,3-dihydro-imidazo[4,5-c]quinolin-2-one] | 9 nM | 4 µg/mL (≈ 9.48 µM) | 5 nM | 3 nM | 37 nM
Cc1nn(C)cc1-n1c(=O)n(C)c2cnc3ccc(-c4ccc(N)nc4)cc3c21 [Example 23.1, 8-(6-Amino-pyridin-3-yl)-1-(1,3-dimethyl-1H-pyrazol-4-yl)-3-methyl-1,3-dihydro-imidazo[4,5-c]quinolin-2-one] | 8 nM | 16 µg/mL (≈ 41.5 µM) | 15 nM | 4 nM | 41 nM
Cc1nn(C(C)C)cc1-n1c(=O)n(C)c2cnc3ccc(-c4ccc(N)nc4)cc3c21 [Example 23.2, 8-(6-Amino-pyridin-3-yl)-1-(1-isopropyl-3-methyl-1H-pyrazol-4-yl)-3-methyl-1,3-dihydro-imidazo[4,5-c]quinolin-2-one] | 35 nM | 45 µg/mL (≈ 109 µM) | 43 nM | 2 nM | 197 nM
COCCOc1ccc(-c2ccc3ncc4c(c3c2)n(-c2cn(C)nc2C)c(=O)n4C)cc1OC [Example 30.1, 1-(1,3-Dimethyl-1H-pyrazol-4-yl)-8-[3-methoxy-4-(2-methoxy-ethoxy)-phenyl]-3-methyl-1,3-dihydro-imidazo[4,5-c]quinolin-2-one] | 22 nM | 4 µg/mL (≈ 8.45 µM) | 36 nM | 14 nM | 157 nM
Cc1nn(C)c(C)c1-n1c(=O)n(C)c2cnc3ccc(-c4cccc(O)c4)cc3c21 [Example 32.2, 8-(3-Hydroxy-phenyl)-3-methyl-1-(1,3,5-trimethyl-1H-pyrazol-4-yl)-1,3-dihydro-imidazo[4,5-c]quinolin-2-one] | 30 nM | 194 µg/mL (≈ 486 µM) | 38 nM | 558 nM | 165 nM
CNC(=O)c1ccc(-c2ccc3ncc4c(c3c2)n(-c2cn(C)nc2C)c(=O)n4C)cc1 [Example 43.1, 4-[1-(1,3-Dimethyl-1H-pyrazol-4-yl)-3-methyl-2-oxo-2,3-dihydro-1H-imidazo[4,5-c]quinolin-8-yl]-N-methyl-benzamide] | 10 nM | 19 µg/mL (≈ 44.6 µM) | 218 nM | 3 nM | 190 nM
Cc1nn(C)cc1-n1c(=O)n(C)c2cnc3ccc(-c4cncc(N)c4)cc3c21 [Example 45.1, 8-(5-Amino-pyridin-3-yl)-1-(1,3-dimethyl-1H-pyrazol-4-yl)-3-methyl-1,3-dihydro-imidazo[4,5-c]quinolin-2-one] | 14 nM | > 385 µg/mL | 19 nM | 43.5 nM | 47 nM
CCOc1ncc(-c2ccc3ncc4c(c3c2)n(-c2cn(C)nc2C)c(=O)n4C)cn1 [Example 52, 1-(1,3-Dimethyl-1H-pyrazol-4-yl)-8-(2-ethoxy-pyrimidin-5-yl)-3-methyl-1,3-dihydro-imidazo[4,5-c]quinolin-2-one] | 56 nM | 11 µg/mL (≈ 26.5 µM) | 37 nM | 48 nM | 343 nM
COCc1cncc(-c2ccc3ncc4c(c3c2)n(-c2cn(C)nc2Cl)c(=O)n4C)c1 [Example 54.2, 1-(3-Chloro-1-methyl-1H-pyrazol-4-yl)-8-(5-methoxymethyl-pyridin-3-yl)-3-methyl-1,3-dihydro-imidazo[4,5-c]quinolin-2-one] | 30 nM | > 435 µg/mL | 20 nM | 1 nM | 51 nM
CCOc1cncc(-c2ccc3ncc4c(c3c2)n(-c2cn(C)nc2C)c(=O)n4C)c1 [Example 56.1, 1-(1,3-Dimethyl-1H-pyrazol-4-yl)-8-(5-ethoxy-pyridin-3-yl)-3-methyl-1,3-dihydro-imidazo[4,5-c]quinolin-2-one] | 4 nM | 25 µg/mL (≈ 60.3 µM) | 6 nM | 4 nM | 6 nM
CCOc1cncc(-c2ccc3ncc4c(c3c2)n(-c2c(C)cnn2C)c(=O)n4C)c1 [Example 56.5, 1-(2,4-Dimethyl-2H-pyrazol-3-yl)-8-(5-ethoxy-pyridin-3-yl)-3-methyl-1,3-dihydro-imidazo[4,5-c]quinolin-2-one] | 155 nM | 16 µg/mL (≈ 38.6 µM) | 196 nM | 130 nM | 193 nM
CCn1cc(-n2c(=O)n(C)c3cnc4ccc(-c5cncc(OC(C)C)c5)cc4c32)c(C)n1 [Example 58.4, 1-(1-Ethyl-3-methyl-1H-pyrazol-4-yl)-8-(5-isopropoxy-pyridin-3-yl)-3-methyl-1,3-dihydro-imidazo[4,5-c]quinolin-2-one] | 14 nM | 27 µg/mL (≈ 61 µM) | 12 nM | 2 nM | 29 nM
COCCOc1cncc(-c2ccc3ncc4c(c3c2)n(-c2cn(C)nc2C)c(=O)n4C)c1 [Example 59.1, 1-(1,3-Dimethyl-1H-pyrazol-4-yl)-8-[5-(2-methoxy-ethoxy)-pyridin-3-yl]-3-methyl-1,3-dihydro-imidazo[4,5-c]quinolin-2-one] | 18 nM | > 444 µg/mL | 91 nM | 6 nM | 89 nM
Cc1nn(C)cc1-n1c(=O)n(C)c2cnc3ccc(-c4cncc(OCC5CC5)c4)cc3c21 [Example 61, 8-(5-Cyclopropylmethoxy-pyridin-3-yl)-1-(1,3-dimethyl-1H-pyrazol-4-yl)-3-methyl-1,3-dihydro-imidazo[4,5-c]quinolin-2-one] | 12 nM | 8 µg/mL (≈ 18.2 µM) | 17 nM | 1 nM | 25 nM
Cc1nn(C)c(C)c1-n1c(=O)n(C)c2cnc3ccc(-c4cnc(N)nc4)cc3c21 [Example 81.2, 8-(2-Amino-pyrimidin-5-yl)-3-methyl-1-(1,3,5-trimethyl-1H-pyrazol-4-yl)-1,3-dihydro-imidazo[4,5-c]quinolin-2-one] | 51 nM | 133 µg/mL (≈ 332 µM) | 30 nM | 19 nM | 281 nM
CCOc1cc(-c2ccc3ncc4c(c3c2)n(-c2cn(C)nc2C)c(=O)n4C)cnc1C [Example 85.1, 1-(1,3-Dimethyl-1H-pyrazol-4-yl)-8-(5-ethoxy-6-methyl-pyridin-3-yl)-3-methyl-1,3-dihydro-imidazo[4,5-c]quinolin-2-one] | 6 nM | 6 µg/mL (≈ 14 µM) | 3 nM | 1 nM | 12 nM
